{
  "source": "patent US20200188388A1",
  "about": "“METHODS AND COMPOSITIONS FOR PO[…] DRUGS AND REDUCING THEIR SIDE EFFECTS” (RVX THERAPEUTICS LTD., priority 2016, published 2020)",
  "key": {"Wistar rats [1]": {"tested_on": "Wistar rats", "test": "Open field test, hypokinetic (sedative) or hyperkinetic action (analgesia examples)", "conditions": "for Hyperkinesia or sedataion / Hyperkinesia / Hyperkinesia or sedation: unmarked cells; for Hyperkinesia or sedataion: doses as E12; for Hyperkinesia or sedation: doses as E6; for Horizontal locomotive activity: control 16.1", "protocol": "(§1) To evaluate the hypokinetic (sedative) or hyperkinetic action effects of tested drugs an “open field” (OF) test was applied. In the OF test, the locomotive activity of rats is determined. Animals were placed in the center of square of the illuminated field (1 meter×1 meter) for 3 minutes and the mobility time was recorded in seconds (horizontal activity). […] To quantify the locomotive activity for each dose of test drug(s) an average horizontal activity was calculated.\nas §1\nTo evaluate the hypokinetic (sedative) effects of drugs, “open field” (OF) test was applied. In the OF test, the locomotive activity of rats is determined. Animals were placed in the center of square of the illuminated field (1 meter×1 meter) for 3 minutes and the mobility time was recorded in seconds (horizontal activity). […] To quantify the locomotive activity for each dose of test drug(s), an average horizontal activity was calculated.\nTail-Flick and Open Field Tests were Conducted as Detailed Above.\nas §1"}, "male Wistar rats": {"tested_on": "male Wistar rats", "test": "Opioid hyperalgesia in tail and paw withdrawal tests (% rats)"}, "Wistar rats [2]": {"tested_on": "Wistar rats", "test": "Rotenone model: hyperkinetic side effect in open field test (days 10 and 18)", "format": "in vivo, rat", "conditions": "for Hyperkmesia (% of group): phenylephrine 0.3 mg/kg oral", "protocol": "Anti-parkinsonian effect of therapy in rats with rotenone-induced PD was estimated according to elimination of extrapyramidal disorders (catalepsy) and oligokinesia (rapid decreased amplitude and velocity of repeated movements) in the “open field” test. The neuro-protective effect of therapy was evaluated by the elimination of ataxia limb dystonia and mortality in rats with rotenone-induced PSP. Hyperkinetic side action (hyper-locomotion) was evaluated by increased horizontal and vertical activity in the open field at the 10th and 18th day of the experiment, calculated in % compared to the first day of the experiment.\nAtaxia and limb dystonia registration was performed twice daily, 30 minutes before administration of rotenone and 180 minutes after administration of rotenone. For each experimental group on a daily basis, throughout the whole period of observation number of rats with severe ataxia and limb dystonia (++−+++) and mortality in % of the total number of rats in group was determined. The neuro-protective effect of therapy (effects on rate of ataxia, limb dystonia and lethality) in rats with PSP was determined at days 12 and 19 of the experiment as reducing the number of rats with severe ataxia limb dystonia and mortality in % compared to control. Side hyperkinetic effects were evaluated in the “open field” test. In this test the locomotive activity in rats is determined. […] Registration of horizontal and vertical locomotive activity in OF assay was performed on the 10th and 18th day of the experiment, within 40 minutes after administration of the substance and 5 minutes before administration of rotenone. Side hyperkinetic effects was evaluated by the number of rats with a significant (at least 50% compared with the first day of the experiment) increase in horizontal and vertical activity (hyperkinesia) as a % of the total number of rats in group.\nAnti-parkinsonian effect of therapy in rats with rotenone-induced parkinsonism was estimated according to elimination of extrapyramidal disorders (catalepsy) and oligokinesia in the “open field” test. The neuro-protective effect of therapy was evaluated by the elimination of ataxia and mortality in rats with rotenone-induced PSP. Hyperkinetic side action (hyper-locomotion) was evaluated by increased horizontal and vertical activity in the open field at the 10th and 18th day of the experiment, calculated in % compared to the first day of the experiment.\nThe neuro-protective effect in the experimental groups of rats with rotenone-induced PSP was evaluated due the elimination of ataxia and mortality caused by neurotoxic action of rotenone. Ataxia is typical incoordination neurotoxic effect of rotenone manifested in uncoordinated movements and hyper-locomotion, replaced by hypokinesia and stereotypes, and in severe cases a complete violation of antigravity reflexes, falling on its side and akinesia. Assessment of the severity of ataxia in scores was performed using the following scale: (+) uncoordinated movement, hyperkinesia; (++) significant incoordination, hypokinesia, stereotypes, falling on its side; (+++) complete violation of antigravity reflexes, akinesia. Ataxia registration was performed twice daily, 30 minutes before administration of rotenone and 180 minutes after administration of rotenone. For each experimental group on a daily basis, throughout the whole period of observation number of rats with severe ataxia (++−+++) and mortality in % of the total number of rats in group was determined. The neuro-protective effect of therapy (effects on rate of ataxia and lethality) in rats with PSP was determined at days 12 and 19 of the experiment as reducing the number of rats with severe ataxia and mortality in % compared to control. Side hyperkinetic effects were evaluated in the “open field” test. In this test the locomotive activity in rats is determined. […]"}, "Wistar rats [3]": {"tested_on": "Wistar rats", "test": "Open field test, hyperkinetic side effects (haloperidol catalepsy examples)", "format": "in vivo, rat", "conditions": "oral", "protocol": "To evaluate the side hyperkinetic effects of drugs, the test an “open field” (OF) test was applied. […] To quantify the locomotive activity for each dose of the test drug(s), an average horizontal activity was calculated."}, "Wistar rats [4]": {"tested_on": "Wistar rats", "test": "Rotenone-induced PD: severe oligokinesia in open field test", "format": "in vivo, rat", "conditions": "for Severe oligokinesia (% of group): phenylephrine 0.3 mg/kg oral, oligokinesia ++-+++ in OF test; for Severe oligokinesia, Day 12 / Severe oligokinesia, Day 19: control 100", "protocol": "Locomotive activity of rats was tested in the “open field” test. […] Registration of horizontal and vertical locomotive activity was carried out in first day for rats with high selection locomotive activity (total walking time with not less than 12 seconds and the number of vertical uprights at least 4), 60 minutes before the first administration of rotenone. To identify the rotenone-induced oligokinesia in each experimental group the locomotive activity in the open field test was examined again 2 hours after the administration of rotenone on days 12 and 19 of the experiment.\n(§2) Quantification of oligokinesia in points: 0 points—the highest horizontal activity (walking total time more than 12 seconds) and high vertical activity (number of vertical posts) more than 3; 1 point—reducing the horizontal activity (total walking time 7-11 seconds) and a decrease in vertical activity (the number of vertical columns 1-3); 2 points—a significant reduction in horizontal activity (total walking time 2-6 seconds) and the absence of vertical activity (the number of vertical columns 0-1); 3 points—the absence of horizontal activity (total walking time 0-1 seconds) and the absence of vertical activity (number of vertical columns 0). In each experimental group 120 minutes after administration of rotenone on days 12 and 19 of experiment the number of rats with severe oligokinesia (2-3 points) in % of the total number of rats in group was determined.\nLocomotive activity of rats was tested in the “open field” test. […] Registration of horizontal and vertical locomotive activity was carried out in first day for rats with high selection locomotive activity (total walking time with not less than 12 seconds and the number of vertical uprights at least 4), 60 minutes before the first administration of rotenone. To identify the rotenone-induced oligokynesia in each experimental group the locomotive activity in the open field test was examined again 2 hours after the administration of rotenone on days 12 and 19 of the experiment.\nas §2, with “of oligokynesia” for “of oligokinesia”"}},
  "note": "Values joined by “and” are separate entries in the source; they are usually repeats but may differ in a detail not shown here. Identical values can stand only once. Like-named read-outs stand apart in the source and are kept apart here.",
  "data": [
    {"smiles": "CN(C)CCC=C1c2ccccc2CCc2ccccc21", "note": "[Amitriptyline, amitriptyline]", "values": [
      {"measurement": "Hyperkinesia or sedataion", "setting": "Wistar rats [1]", "result": 0, "unit": "% rats"},
      {"measurement": "Hyperkinesia", "setting": "Wistar rats [1]; doses as E54", "result": 0, "unit": "% rats"},
      {"measurement": "Hyperalgesia", "setting": "male Wistar rats; doses as E12", "result": 0, "unit": "% rats"},
      {"measurement": "Hyperalgesia", "setting": "male Wistar rats; doses as E54", "result": 0, "unit": "% rats"}
    ]},
    {"smiles": "Cc1c(N(C)CS(=O)(=O)[O-])c(=O)n(-c2ccccc2)n1C.[Na+]", "note": "[Dipyrone, dipyrone]", "values": [
      {"measurement": "Hyperkinesia or sedataion", "setting": "Wistar rats [1]", "result": 0, "unit": "% rats"},
      {"measurement": "Hyperkinesia", "setting": "Wistar rats [1]; doses as E54", "result": 0, "unit": "% rats"},
      {"measurement": "Hyperalgesia", "setting": "male Wistar rats; doses as E12", "result": 0, "unit": "% rats"},
      {"measurement": "Hyperalgesia", "setting": "male Wistar rats; doses as E54", "result": 0, "unit": "% rats"}
    ]},
    {"smiles": "CNC[C@H](O)c1ccc(O)c(O)c1", "note": "[Epinephrine, epinephrine]", "values": [
      {"measurement": "Locomotive horizontal activity in open field", "setting": "Wistar rats [1]; I.M., control 15.6, doses by row as E32", "result": "15.4 s and 15.9 s and 17.6 s"},
      {"measurement": "Sedation", "setting": "Wistar rats [1]; I.M., doses by row as E3", "result": "0 % of Rats"},
      {"measurement": "Sedation", "setting": "Wistar rats [1]; I.M., doses by row as E32", "result": "0% of group"},
      {"measurement": "Hyperkinesia or sedation", "setting": "Wistar rats [1]", "result": 0, "unit": "% rats"},
      {"measurement": "Hyperkinesia", "setting": "Wistar rats [1]; doses as E48", "result": 0, "unit": "% rats"},
      {"measurement": "Hyperalgesia", "setting": "male Wistar rats; doses as E6", "result": 0, "unit": "% rats"},
      {"measurement": "Hyperalgesia", "setting": "male Wistar rats; doses as E48", "result": 0, "unit": "% rats"}
    ]},
    {"smiles": "CN1CC[C@]23c4c5ccc(O)c4O[C@H]2[C@@H](O)C=C[C@H]3[C@H]1C5", "note": "[Morphine, morphine]", "values": [
      {"measurement": "Horizontal locomotive activity", "setting": "Wistar rats [1]; oral, doses as E35", "result": "15.5 s and 13.2 s and 7.8 s"},
      {"measurement": "Hyperkinesia or sedation", "setting": "Wistar rats [1]", "result": 0, "unit": "% rats"},
      {"measurement": "Hyperkinesia or sedataion", "setting": "Wistar rats [1]", "result": 0, "unit": "% rats"},
      {"measurement": "Hyperkinesia", "setting": "Wistar rats [1]; doses as E48", "result": 0, "unit": "% rats"},
      {"measurement": "Hyperkinesia", "setting": "Wistar rats [1]; doses as E54", "result": 0, "unit": "% rats"}
    ]},
    {"smiles": "CNC[C@H](O)c1cccc(O)c1", "note": "[Phenylephrine, phenylephrine]", "values": [
      {"measurement": "Hyperkinesia, Day 18", "setting": "Wistar rats [2]", "result": "0 % of group"},
      {"measurement": "Hyperkmesia (% of group)", "setting": "Wistar rats [2]; Day 10, locomotive activity in OF test increased more than 50% vs first day", "result": "0 % of group"},
      {"measurement": "Hyperkmesia (% of group)", "setting": "Wistar rats [2]; Day 18, locomotive activity in OF test increased more than 50% vs first day", "result": "0 % of group"},
      {"measurement": "Hyperkinesia, Day 10", "setting": "Wistar rats [2]; doses as E38", "result": "0 % of group"},
      {"measurement": "Hyperkinesia, Day 18", "setting": "Wistar rats [2]; doses as E38", "result": "0 % of group"},
      {"measurement": "Hyperkinesia, Day 10", "setting": "Wistar rats [2]; locomotive activity in OF test increased more than 50% vs first day", "result": "0 % of group"},
      {"measurement": "Horizontal locomotive activity", "setting": "Wistar rats [1]; oral, doses as E35", "result": "15.9 s and 16.3 s and 17.9 s"},
      {"measurement": "Sedation", "setting": "Wistar rats [1]; oral, doses as E35", "result": "0% of group"},
      {"measurement": "Hyperkinesia or sedataion", "setting": "Wistar rats [1]", "result": 0, "unit": "% rats"},
      {"measurement": "Hyperkinesia", "setting": "Wistar rats [1]; doses as E54", "result": 0, "unit": "% rats"},
      {"measurement": "Hyperalgesia", "setting": "male Wistar rats; doses as E12", "result": 0, "unit": "% rats"},
      {"measurement": "Hyperalgesia", "setting": "male Wistar rats; doses as E54", "result": 0, "unit": "% rats"},
      {"measurement": "Hyperkinesia", "setting": "Wistar rats [3]; doses by row as E18", "result": "0 % of Rats"},
      {"measurement": "Hyperkinesia", "setting": "Wistar rats [3]; doses by row as E30", "result": "0 % of Rats"},
      {"measurement": "Hyperkinesia", "setting": "Wistar rats [3]; doses by row as E60", "result": "0 % of Rats"},
      {"measurement": "Hyperkinesia", "setting": "Wistar rats [3]; open field 40 min after dosing, doses by row as E1", "result": "0 % of Rats"},
      {"measurement": "Severe oligokinesia (% of group)", "setting": "Wistar rats [4]; Day 12", "result": "86 % of group"},
      {"measurement": "Severe oligokinesia (% of group)", "setting": "Wistar rats [4]; Day 19", "result": "100 % of group"},
      {"measurement": "Severe oligokinesia, Day 12", "setting": "Wistar rats [4]", "result": "86 % of group"},
      {"measurement": "Severe oligokinesia, Day 19", "setting": "Wistar rats [4]", "result": "100 % of group"},
      {"measurement": "Severe oligokinesia, Day 12", "setting": "Wistar rats [4]; doses as E38", "result": "90 % of group"},
      {"measurement": "Severe oligokinesia, Day 19", "setting": "Wistar rats [4]; doses as E38", "result": "100 % of group"}
    ]}
  ]
}
